In US9271962B2 (NORTHEASTERN UNIVERSITY, priority 2008, dated 2016):

These compounds were tested against T1, hMGL (Homo sapiens, UniProt Q99685) (assay: Fluorescent enzyme assay, MGL (AHMMCE hydrolysis)). Conditions: 10 nM inhibitor; AHMMCE substrate; screening assay; read-out: % Inhibition of Enzyme by inhibitor, MGL, 10 nM.
T1 construct: A full-length cDNA clone of the human MGL transcript variant 1; made in house; host or cells: E. coli BL21 (DE3)
T1 sequence (Q99685 2-303 limits assumed): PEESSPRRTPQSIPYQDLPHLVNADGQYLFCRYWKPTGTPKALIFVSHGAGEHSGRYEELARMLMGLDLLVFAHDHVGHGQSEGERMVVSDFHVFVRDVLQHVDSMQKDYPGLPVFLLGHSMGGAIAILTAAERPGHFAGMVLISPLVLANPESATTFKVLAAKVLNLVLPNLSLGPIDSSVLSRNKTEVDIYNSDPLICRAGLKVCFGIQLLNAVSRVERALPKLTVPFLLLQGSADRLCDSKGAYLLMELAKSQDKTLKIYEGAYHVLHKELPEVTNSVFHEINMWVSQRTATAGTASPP
Type: biochemical
Procedure: (§1) Some analogs were tested for their FAAH/MGL inhibitory activity, which is expressed as % of inhibition (Tables 2, 3, and 4 below). The percentage of inhibition results from three-point assay (three concentrations of inhibitor are used) and it is less accurate (preliminary screening) than the IC50/Ki values that are determined from eight-point assay (eight different concentrations of inhibitor were used). The percentage of inhibition describes the percentage by which the inhibitor reduces the velocity/rate of AAMCA (arachidonoyl-7-amino-4-methylcoumarin amide) or AHMMCE (arachidonoyl-7-hydroxy-6-methoxy-4-methylcoumarin ester) hydrolysis by FAAH or MGL respectively. The IC50 is the concentration of the inhibitor, which results in 50% inhibition of the velocity/rate of AAMCA (arachidonoyl 7-amino-4-methylcoumarin amide) hydrolysis by FAAH or AHMMCE (Arachidonoyl, 7-hydroxy-6-methoxy-4-methylcoumarin ester) hydrolysis by MGL. The Ki value is the affinity constant and describes the ability of the compounds to inhibit the function of FAAH or MGL. The lower the IC50/Ki values, the higher the affinity of the inhibitor for the enzyme and the higher its inhibitory activity. A detailed description of the methods used to test inhibitory activity of compounds is given below.
A full-length cDNA clone of the human MGL transcript variant 1 (gi: 51242951) was obtained from OriGene Technologies (Rockville, Md.). The coding part of the MGL sequence (except the translation initiation codon ATG) was amplified by a polymerase chain reaction (PCR) using forward […] and reverse […] primers containing PmlI and SacI restriction enzyme recognition sites, respectively. iProof high-fidelity DNA polymerase (Bio-Rad, Hercules, Calif.) was used in the PCR amplification with 33 cycles, each consisting of denaturation at 94° C. for 10 s, annealing at 55° C. for 33 s, and extension at 72° C. for 1 min. The PCR product and pET45b vector were digested with PmlI and SacI restriction enzymes, and the vector was dephosphorylated with CIP followed by in-gel purification using the MinElute Gel Extraction Kit (Qiagen Corp., Valencia, Calif.). The fragment was inserted into the vector directly downstream after the 6 histidine and valine codons, generating the construct pET45His6hMGL for expression of hMGL containing an N-terminal His6-tag. GC10 E. coli cells were used for DNA transformation and plasmid propagation. Mini- and midi-scale plasmid DNA preparations were performed using a GenElute Plasmid Miniprep Kit (Sigma) and PureYield Plasmid Midiprep System (Promega, Madison, Wis.), respectively. In-frame vector-fragment junctions and the coding sequence of the recombinant gene were confirmed by sequencing. The pET45His6hMGL construct was transformed into BL21 (DE3) and Origami (DE3) E. coli expression strains (Novagen, Madison, Wis.).
A single E. coli BL21 (DE3) colony containing the pET45His6hMGL plasmid was inoculated into 12 mL of Luria broth-ampicillin medium and grown overnight with shaking (250 rpm) at 37° C. The next morning, 10 mL of this culture was inoculated into 1 L of fresh Luria broth-ampicillin and allowed to grow until culture turbidity reached an (OD)600 of 0.6-0.8, at which time expression from the T7 promoter was induced by adding isopropyl-β-D-thio-galactopyranoside (1 mM). After 5 h induction, the cells were harvested by centrifugation at 5,000 g for 10 min at 4° C., washed with PBS, and held at −80° C. Five grams (wet-weight) of cells were resuspended in 50 mL lysis buffer (100 mM NaCl; 50 mM Tris, pH 8.0) supplemented with Triton X-100 (0.5%), lysozyme (0.2 mg/mL), and DNase I (25 μg/ml) and disrupted on ice by three, one-min sonication cycles, each consisting of 1-sec sonication bursts at 50 W power separated from each other by a 2-sec interval (Vibra-Cell 500 W, Sonics, Newtown, Conn.). The cell lysate was centrifuged at 10,000 g for 30 min at 4° C. […]

| Structure (SMILES) | inhibition at 0.01 µM [%] |
| --- | --- |
| CN(C)C(=O)n1nnnc1CC(=O)c1ccccc1 [Compound 4, N,N-dimethyl-5-(2-oxo-2-phenylethyl)-1H-tetrazole-1-carboxamide] | 90 |
| CN(C(=O)n1nnc(Cc2ccc(Cl)cc2Cl)n1)c1ccccc1 [Compound 7a, 5-(2,4-dichlorobenzyl)-N-methyl-N-phenyl-2H-tetrazole-2-carboxamide] | 58 |
| CN(C)C(=O)n1nnnc1Cc1ccc(Cl)cc1Cl [Compound 17b] | 97 |
| CN(C)C(=O)n1nnc(Cc2ccc(I)cc2)n1 [Compound 18a, 5-(4-iodobenzyl)-N,N-dimethyl-2H-tetrazole-2-carboxamide] | 97 |
| CSc1ccc(Cc2nnnn2C(=O)N(C)C)cc1 [Compound 23b] | 60 |
| CN(C)C(=O)n1nnc(Cc2ccc(OC(F)(F)F)cc2)n1 [Compound 19a] | 99 |
| O=C(N1CCOCC1)n1nnc(Cc2ccc(Cl)cc2Cl)n1 [Compound 6, 4-{[5-(2,4-dichlorobenzyl)-tetrazol-2-yl]carbonyl}morpholine] | 88 |
| CN(C)C(=O)n1nnnc1-c1cc2ccccc2[nH]1 [Compound 3b, 5-(1H-indol-2-yl)-N,N-dimethyl-2H-tetrazole-1-carboxamide] | 92 |
| CN(C)C(=O)n1nnnc1Cc1cccnc1 [Compound 5, N,N-dimethyl-5-(pyridin-3-yl-methyl)-1H-tetrazole-1-carboxamide] | 81 |
| CN(CCCCCl)C(=O)n1cnc(-c2ccccc2)n1 [Compound 53, N-(4-chlorobutyl)-N-methyl-3-phenyl-1H-1,2,4-triazole-1-carboxamide] | 13 |
| CN(C)C(=O)n1nnnc1Cc1ccc(Br)cc1 [Compound 16b] | 64 |

Same assay, conditions: 1000 nM inhibitor; AHMMCE substrate; screening assay

| Structure (SMILES) | inhibition at 1 µM [%] |
| --- | --- |
| O=C(N(c1ccccc1)c1ccccc1)n1nnnc1Cc1ccc(Cl)cc1Cl [Compound 8b] | 21 |
| O=C(N(c1ccccc1)c1ccccc1)n1nnc(Cc2ccc(Cl)cc2Cl)n1 [Compound 8a, 5-(2,4-dichlorobenzyl)-N,N-diphenyl-2H-tetrazole-2-carboxamide] | 100 |
| CN(C)C(=O)N1CC(C(C)(C)C)OC1=O (stereo not shown) [Compound 31, 5-tert-butyl-N,N-dimethyl-2-oxooxazolidine-3-carboxamide] | 66 |
| CN(C)C(=O)n1ccc(-c2ccccc2)n1 [Compound 30, N,N-dimethyl-3-phenyl-1H-pyrazole-1-carboxamide] | 11 |
| CN(CCCCCl)C(=O)n1cnc(-c2ccccc2)n1 [Compound 53, N-(4-chlorobutyl)-N-methyl-3-phenyl-1H-1,2,4-triazole-1-carboxamide] | 71 |
| CN(C)C(=O)n1cnnc1 [Compound 29, N,N-dimethyl-4H-1,2,4-triazole-4-carboxamide] | 79 |
| CN(C)C(=O)n1cnc2ncncc21 [Compound 60, N,N-dimethyl-7H-purine-7-carboxamide] | 86 |

Same assay, conditions: 100 uM inhibitor, printed in the 1000 nM column

| Structure (SMILES) | inhibition at 100 µM [%] |
| --- | --- |
| CN(C)C(=O)n1nnc(Cc2cccc3ccccc23)n1 [Compound 50, N,N-dimethyl-5-(naphthalen-1-ylmethyl)-2H-tetrazole-2-carboxamide] | 42 |
| CN(C)C(=O)n1cnc2nc(OCc3ccccc3)ncc21 [Compound 59, 2-(benzyloxy)-N,N-dimethyl-7H-purine-7-carboxamide] | 86 |

Same assay, conditions: eight-point dose response; AHMMCE substrate

| Structure (SMILES) | IC50 [nM] |
| --- | --- |
| O=C(N(c1ccccc1)c1ccccc1)n1nnc(Cc2ccc(Cl)cc2Cl)n1 [Compound 8a, 5-(2,4-dichlorobenzyl)-N,N-diphenyl-2H-tetrazole-2-carboxamide] | 40 |

Same assay, conditions: read-out: % Inhibition of Enzyme by inhibitor, MGL, 10 nM

| Structure (SMILES) | inhibition at 0.01 µM [%] |
| --- | --- |
| CN(C)C(=O)Oc1ccc(Cc2nnnn2C(=O)N(C)C)cc1 [Compound 36b, 4-((1-(dimethylcarbamoyl)-1H-tetrazol-5-yl)methyl)phenyl dimethylcarbamate] | 98 |

The compounds below were run against T2, ΔTM rFAAH (Rattus norvegicus, UniProt P97612) (assay: Fluorescent enzyme assay, FAAH (AAMCA hydrolysis)). Conditions: 10 nM inhibitor; AAMCA substrate; screening assay.
T2 construct: 15 ug of ΔTM rFAAH (cell lysate obtained by recombinant procedure); made in house
T2 sequence (P97612 30-579 limits assumed): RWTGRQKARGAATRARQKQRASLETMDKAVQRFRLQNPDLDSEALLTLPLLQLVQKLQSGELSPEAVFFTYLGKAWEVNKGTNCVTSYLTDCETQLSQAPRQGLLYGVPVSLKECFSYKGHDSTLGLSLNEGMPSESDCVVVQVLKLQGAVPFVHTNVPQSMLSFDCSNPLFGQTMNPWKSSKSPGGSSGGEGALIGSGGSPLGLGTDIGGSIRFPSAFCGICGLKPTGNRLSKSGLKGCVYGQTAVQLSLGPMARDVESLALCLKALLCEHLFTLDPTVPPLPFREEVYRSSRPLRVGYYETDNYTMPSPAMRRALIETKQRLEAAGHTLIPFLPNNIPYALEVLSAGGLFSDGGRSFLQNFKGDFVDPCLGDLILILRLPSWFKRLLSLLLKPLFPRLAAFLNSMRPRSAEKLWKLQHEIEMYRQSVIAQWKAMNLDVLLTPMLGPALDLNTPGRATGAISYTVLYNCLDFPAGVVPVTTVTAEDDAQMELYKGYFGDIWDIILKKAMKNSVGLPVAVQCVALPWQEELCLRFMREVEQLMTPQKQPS
Type: biochemical
Procedure: as §1
The enzyme (FAAH and MGL) assays were performed in 96 well plates (Coster #3650) in a total volume of 200 uL. Fluorogenic substrate AAMCA (arachidonoyl 7-amino-4-methylcoumarin amide) for FAAH and AHMMCE (arachidonoyl 7-hydroxy-6-methoxy-4-methylcoumarin ester) for MGL were used using BioTek Synergy HT Microplate Reader. Compounds and substrates were dissolved in DMSO provide a 10 mM stock solution and kept as a stock solution at −20° C. until used for assay. Stock solutions were thawed and reconstituted in 50:50 DMSO/assay buffer to a final DMSO concentration per well below 8%. This ensures that the compounds and substrate are in solution during assay. […] Appropriate substrate was added to adjust the final concentration in each well to 20 uM for FAAH (2× Km) and 10 uM for MGL (1×KM). Fluorescence readings were performed at λex=360/λem=460 for 4 h using Kinetic assay protocol at every 20 min (the fluorescent product coumarin produced is quantitated by this procedure). The readings at 3 h for FAAH and 2 h for MGL (linear maximum hydrolysis kinetics of enzyme on substrate) were used to calculate percent inhibition based on controls. Compounds which had more than 50 percent inhibition at 10 uM were selected for dose response study to determine IC50 values. The dose response at 8 concentration points was performed as with the screening assay except that compounds were serially diluted to 8 concentration points which were chosen based on IC50 value, which were calculated from the screening assay results. Assays are run twice in triplicates and Graphpad Prism software is used to plot inhibition data to obtain IC50 values.

| Structure (SMILES) | inhibition at 0.01 µM [%] |
| --- | --- |
| CN(C)C(=O)n1nnnc1CC(=O)c1ccccc1 [Compound 4, N,N-dimethyl-5-(2-oxo-2-phenylethyl)-1H-tetrazole-1-carboxamide] | 100 |
| CN(C)C(=O)Oc1ccc(Cc2nnnn2C(=O)N(C)C)cc1 [Compound 36b, 4-((1-(dimethylcarbamoyl)-1H-tetrazol-5-yl)methyl)phenyl dimethylcarbamate] | 82 |
| CN(C(=O)n1nnc(Cc2ccc(Cl)cc2Cl)n1)c1ccccc1 [Compound 7a, 5-(2,4-dichlorobenzyl)-N-methyl-N-phenyl-2H-tetrazole-2-carboxamide] | 84 |
| CN(C)C(=O)n1nnnc1Cc1ccc(Cl)cc1Cl [Compound 17b] | 86 |
| CN(C)C(=O)n1nnc(Cc2ccc(I)cc2)n1 [Compound 18a, 5-(4-iodobenzyl)-N,N-dimethyl-2H-tetrazole-2-carboxamide] | 92 |
| CSc1ccc(Cc2nnnn2C(=O)N(C)C)cc1 [Compound 23b] | 89 |
| CN(C)C(=O)n1nnc(Cc2ccc(OC(F)(F)F)cc2)n1 [Compound 19a] | 92 |
| O=C(N1CCOCC1)n1nnc(Cc2ccc(Cl)cc2Cl)n1 [Compound 6, 4-{[5-(2,4-dichlorobenzyl)-tetrazol-2-yl]carbonyl}morpholine] | 94 |
| CN(C)C(=O)n1nnnc1-c1cc2ccccc2[nH]1 [Compound 3b, 5-(1H-indol-2-yl)-N,N-dimethyl-2H-tetrazole-1-carboxamide] | 97 |
| CN(C)C(=O)n1nnnc1Cc1cccnc1 [Compound 5, N,N-dimethyl-5-(pyridin-3-yl-methyl)-1H-tetrazole-1-carboxamide] | 84 |
| CN(C)C(=O)n1nnnc1Cc1ccc(Br)cc1 [Compound 16b] | 92 |

Same assay, conditions: 1000 nM inhibitor; AAMCA substrate; screening assay

| Structure (SMILES) | inhibition at 1 µM [%] |
| --- | --- |
| O=C(N(c1ccccc1)c1ccccc1)n1nnnc1Cc1ccc(Cl)cc1Cl [Compound 8b] | 9 |
| O=C(N(c1ccccc1)c1ccccc1)n1nnc(Cc2ccc(Cl)cc2Cl)n1 [Compound 8a, 5-(2,4-dichlorobenzyl)-N,N-diphenyl-2H-tetrazole-2-carboxamide] | 66 |
| CN(C)C(=O)N1CC(C(C)(C)C)OC1=O (stereo not shown) [Compound 31, 5-tert-butyl-N,N-dimethyl-2-oxooxazolidine-3-carboxamide] | 63 |
| CN(C)C(=O)n1ccc(-c2ccccc2)n1 [Compound 30, N,N-dimethyl-3-phenyl-1H-pyrazole-1-carboxamide] | 23 |
| CN(CCCCCl)C(=O)n1cnc(-c2ccccc2)n1 [Compound 53, N-(4-chlorobutyl)-N-methyl-3-phenyl-1H-1,2,4-triazole-1-carboxamide] | 100 |
| CN(C)C(=O)n1cnnc1 [Compound 29, N,N-dimethyl-4H-1,2,4-triazole-4-carboxamide] | 92 |
| CN(C)C(=O)n1cnc2ncncc21 [Compound 60, N,N-dimethyl-7H-purine-7-carboxamide] | 96 |

Same assay, conditions: 100 uM inhibitor, printed in the 1000 nM column

| Structure (SMILES) | inhibition at 100 µM [%] |
| --- | --- |
| CN(C)C(=O)n1nnc(Cc2cccc3ccccc23)n1 [Compound 50, N,N-dimethyl-5-(naphthalen-1-ylmethyl)-2H-tetrazole-2-carboxamide] | 85 |
| CN(C)C(=O)n1cnc2nc(OCc3ccccc3)ncc21 [Compound 59, 2-(benzyloxy)-N,N-dimethyl-7H-purine-7-carboxamide] | 10 |

Same assay, conditions: eight-point dose response; AAMCA substrate

| Structure (SMILES) | IC50 [nM] |
| --- | --- |
| O=C(N(c1ccccc1)c1ccccc1)n1nnc(Cc2ccc(Cl)cc2Cl)n1 [Compound 8a, 5-(2,4-dichlorobenzyl)-N,N-diphenyl-2H-tetrazole-2-carboxamide] | 1300 |
